In ChEMBL document CHEMBL3879909, “Piperidin-4-yl azetidine derivatives as JAK1 inhibitors” (2014) one finds Ratio IC50 and IC50 data, which are given here for four compounds.

The species entered for one assay is Homo sapiens. The experiment in a line: Selectivity ratio of IC50 for human N-terminal His-tagged JAK2 catalytic domain (828 to 1132 residues) to IC50 for human N-terminal His-tagged JAK1 catalytic domain (837 to 1142 residues).
Assay [1] deals with Tyrosine-protein kinase JAK2 (Homo sapiens, UniProt O60674). Briefly: Inhibition of human N-terminal His-tagged JAK2 catalytic domain (828 to 1132 residues) expressed in baculovirus infected insect cells assessed as decrease in phosphorylation of biotinylated peptide substrate after 1 hr in presence of 1 mM ATP by HTRF method.
Chain of Tyrosine-protein kinase JAK2 (O60674 whole entry, the tested form may be a part): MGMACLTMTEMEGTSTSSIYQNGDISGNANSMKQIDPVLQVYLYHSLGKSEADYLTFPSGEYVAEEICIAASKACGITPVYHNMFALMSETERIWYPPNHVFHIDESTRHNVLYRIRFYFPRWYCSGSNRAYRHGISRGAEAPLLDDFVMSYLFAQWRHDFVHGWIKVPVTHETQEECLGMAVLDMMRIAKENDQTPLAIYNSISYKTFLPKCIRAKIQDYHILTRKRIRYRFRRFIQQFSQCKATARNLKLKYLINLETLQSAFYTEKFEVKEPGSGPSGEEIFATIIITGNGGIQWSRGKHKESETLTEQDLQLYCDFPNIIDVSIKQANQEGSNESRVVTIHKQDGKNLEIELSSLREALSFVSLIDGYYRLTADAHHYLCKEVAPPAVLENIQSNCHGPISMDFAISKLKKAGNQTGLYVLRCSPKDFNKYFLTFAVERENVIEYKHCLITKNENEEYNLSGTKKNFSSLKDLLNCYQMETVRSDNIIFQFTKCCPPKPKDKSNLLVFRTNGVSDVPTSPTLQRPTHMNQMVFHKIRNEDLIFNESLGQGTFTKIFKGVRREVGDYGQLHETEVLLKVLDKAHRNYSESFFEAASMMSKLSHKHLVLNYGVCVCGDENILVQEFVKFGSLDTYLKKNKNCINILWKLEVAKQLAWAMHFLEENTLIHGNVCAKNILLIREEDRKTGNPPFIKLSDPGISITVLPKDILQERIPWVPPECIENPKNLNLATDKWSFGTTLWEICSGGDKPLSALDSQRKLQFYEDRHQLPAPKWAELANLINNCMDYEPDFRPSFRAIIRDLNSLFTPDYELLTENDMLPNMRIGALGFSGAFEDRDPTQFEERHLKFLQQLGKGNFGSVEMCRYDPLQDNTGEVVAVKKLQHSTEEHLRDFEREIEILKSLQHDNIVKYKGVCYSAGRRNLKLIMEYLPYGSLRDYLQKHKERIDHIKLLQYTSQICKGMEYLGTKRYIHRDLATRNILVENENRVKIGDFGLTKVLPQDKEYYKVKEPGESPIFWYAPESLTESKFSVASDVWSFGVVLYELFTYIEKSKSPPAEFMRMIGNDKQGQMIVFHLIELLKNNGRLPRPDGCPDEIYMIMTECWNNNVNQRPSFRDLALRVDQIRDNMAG
Assay [2] concerns the target Tyrosine-protein kinase JAK1 (Homo sapiens, UniProt P23458). Briefly: Inhibition of human N-terminal His-tagged JAK1 catalytic domain (837 to 1142 residues) expressed in baculovirus infected insect cells assessed as decrease in phosphorylation of biotinylated peptide substrate after 1 hr in presence of 1 mM ATP by HTRF method.

Chain of Tyrosine-protein kinase JAK1 (P23458 whole entry, the tested form may be a part): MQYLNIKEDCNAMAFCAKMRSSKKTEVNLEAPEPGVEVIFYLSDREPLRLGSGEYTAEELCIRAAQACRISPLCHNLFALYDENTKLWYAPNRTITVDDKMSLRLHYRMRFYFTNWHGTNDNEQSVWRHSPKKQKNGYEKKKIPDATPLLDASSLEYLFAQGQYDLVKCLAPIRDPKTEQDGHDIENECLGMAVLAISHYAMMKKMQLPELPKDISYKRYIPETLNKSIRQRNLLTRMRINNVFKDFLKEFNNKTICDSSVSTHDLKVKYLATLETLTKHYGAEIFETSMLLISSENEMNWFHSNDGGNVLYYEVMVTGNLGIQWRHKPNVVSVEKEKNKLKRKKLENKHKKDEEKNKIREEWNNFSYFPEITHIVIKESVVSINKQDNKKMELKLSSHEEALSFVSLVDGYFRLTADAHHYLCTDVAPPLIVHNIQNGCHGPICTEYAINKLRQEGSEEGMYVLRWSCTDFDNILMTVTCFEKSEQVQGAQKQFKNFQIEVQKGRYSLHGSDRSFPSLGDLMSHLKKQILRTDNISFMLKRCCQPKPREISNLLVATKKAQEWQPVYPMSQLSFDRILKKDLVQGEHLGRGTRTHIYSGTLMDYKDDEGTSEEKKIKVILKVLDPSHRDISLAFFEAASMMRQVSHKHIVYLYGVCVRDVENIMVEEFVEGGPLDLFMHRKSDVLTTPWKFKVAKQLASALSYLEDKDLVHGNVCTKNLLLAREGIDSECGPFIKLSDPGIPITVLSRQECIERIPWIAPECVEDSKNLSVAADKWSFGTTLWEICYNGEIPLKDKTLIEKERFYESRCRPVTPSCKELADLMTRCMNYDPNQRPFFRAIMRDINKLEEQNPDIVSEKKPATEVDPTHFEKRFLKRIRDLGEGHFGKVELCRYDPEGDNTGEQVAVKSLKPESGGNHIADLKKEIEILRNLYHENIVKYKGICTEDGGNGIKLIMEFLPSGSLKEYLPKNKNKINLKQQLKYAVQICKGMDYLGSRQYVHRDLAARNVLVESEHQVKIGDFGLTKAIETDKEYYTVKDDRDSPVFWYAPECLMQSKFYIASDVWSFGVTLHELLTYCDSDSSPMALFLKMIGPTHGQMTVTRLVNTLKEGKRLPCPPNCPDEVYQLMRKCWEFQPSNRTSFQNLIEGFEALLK

Turning to `N#CCC1(n2cc(-c3ccnc4[nH]ccc34)cn2)CN(C2CCN(C(=O)c3ccnc(C(F)(F)F)c3F)CC2)C1`, the Ratio IC50 in the assay filed under Homo sapiens was 21.4. The results for the IC50 in assay [1] and in assay [2] were above 0.1 µM and 0.005 to 0.02 µM, respectively.

As for `N#CCC1(n2cc(-c3ncnc4[nH]ccc34)cn2)CN(C2CCN(C(=O)Nc3cnccc3C(F)(F)F)CC2)C1`, in the assay filed under Homo sapiens, the Ratio IC50 lay within 10.4 to 20.3.

Turning to `N#CCC1(n2cc(-c3ncnc4[nH]ccc34)cn2)CN(C2CCN(C(=O)OCc3cc(F)cc(F)c3)CC2)C1`, the Ratio IC50 in the assay listed under Homo sapiens fell in the range of 7.1 to 24.4.

As for `CO[C@@H]1CN(C(=O)c2ccnc(C(F)(F)F)c2F)CC[C@@H]1N1CC(CC#N)(n2cc(-c3ncnc4[nH]ccc34)cn2)C1` (relative stereo), the Ratio IC50 in the assay filed under Homo sapiens turned out to be 59.2. Also, the IC50 is above 0.1 µM in assay [1] and at most 0.005 µM in assay [2].
